From US20230143345A1, “PHARMACEUTICAL COMPOSITION FOR PREVENTION OR TREATMENT OF DISEASES CAUSED BY SARS-COV-2” (DONG WHA PHARM. CO., LTD., priority 2020, published 2023)
Values joined by “and” are separate entries in the source; they are usually repeats but may differ in a detail not shown here. Identical values can stand only once. Like-named read-outs stand apart in the source and are kept apart here.

Columns and labels:
SARS-CoV-2 = assay: microbe, parasite or virus in culture; type: cell-based
Vero cell lines = assay: Cell viability of Vero cells in the SARS-CoV-2 inhibition experiment (Example 2)
[1] = Severe acute respiratory syndrome coronavirus 2, Vero, 24 h, concentration 25 uM, Vero cells, 24 h, read-out: SARS-CoV-2 virus inhibitory ability (%, average ± standard deviation)
[2] = Severe acute respiratory syndrome coronavirus 2, Vero, 24 h, concentration 50 uM, Vero cells, 24 h, read-out: SARS-CoV-2 virus inhibitory ability (%, average ± standard deviation)
[3] = Severe acute respiratory syndrome coronavirus 2, Vero, 24 h, read-out: SARS-CoV-2 virus 50% inhibitory ability (IC50 value), Vero cells dosed while being infected, 24 h, compounds

Compound `CCC(CC)COC(=O)[C@H](C)N[P@](=O)(OC[C@H]1O[C@@](C#N)(c2ccc3c(N)ncnn23)[C@H](O)[C@@H]1O)Oc1ccccc1` [Remdesivir] has an inhibition at 6.25 µM (SARS-CoV-2; Severe acute respiratory syndrome coronavirus 2, Vero, 24 h, concentration 6.25 uM, read-out: SARS-CoV-2 virus inhibitory ability (%, average ± standard deviation)) of 10.8 ± 43.8%, an inhibition at 12.5 µM (SARS-CoV-2; Severe acute respiratory syndrome coronavirus 2, Vero, 24 h, concentration 12.5 uM, read-out: SARS-CoV-2 virus inhibitory ability (%, average ± standard deviation)) of 63.6 ± 1.23% and an inhibition at 25 µM (SARS-CoV-2; Severe acute respiratory syndrome coronavirus 2, Vero, 24 h, concentration 25 uM, read-out: SARS-CoV-2 virus inhibitory ability (%, average ± standard deviation)) of 84.6 ± 2.21%. The inhibition at 50 µM (SARS-CoV-2; Severe acute respiratory syndrome coronavirus 2, Vero, 24 h, concentration 50 uM, read-out: SARS-CoV-2 virus inhibitory ability (%, average ± standard deviation)) was 94.38 ± 0.41%, the IC50 (SARS-CoV-2; Severe acute respiratory syndrome coronavirus 2, Vero, 24 h, read-out: SARS-CoV-2 virus 50% inhibitory ability (IC50 value)) was 10.8 µM and the “SARS-CoV-2 virus inhibitory ability (%, average ± standard deviation)” value (SARS-CoV-2; concentration 0.10 uM, 0.1 µM) was −2.24 ± 7.45%. The “SARS-CoV-2 virus inhibitory ability (%, average ± standard deviation)” value (SARS-CoV-2; concentration 0.20 uM, 0.2 µM) was 2.60 ± 1.90% and 7.2 ± 0.17%, the “SARS-CoV-2 virus inhibitory ability (%, average ± standard deviation)” value (SARS-CoV-2; concentration 0.39 uM, 0.39 µM) was −1.29 ± 2.86% and 4.8 ± 4.21% and the “SARS-CoV-2 virus inhibitory ability (%, average ± standard deviation)” value (SARS-CoV-2; concentration 1.56 uM, 1.56 µM) was 0.65 ± 5.05% and 7.4 ± 1.96%. The “SARS-CoV-2 virus inhibitory ability (%, average ± standard deviation)” value (SARS-CoV-2; concentration 3.13 uM, 3.13 µM) was 5.89 ± 3.28% and 11.8 ± 0.80%, the “SARS-CoV-2 virus inhibitory ability (%, average ± standard deviation)” value (SARS-CoV-2; concentration 6.25 uM, 6.25 µM) was 16.2 ± 2.56% and the “SARS-CoV-2 virus inhibitory ability (%, average ± standard deviation)” value (SARS-CoV-2; concentration 12.5 uM, 12.5 µM) was 47.9 ± 0.01%. The “SARS-CoV-2 virus inhibitory ability (%, average ± standard deviation)” value (SARS-CoV-2; concentration 25 uM, 25 µM) was 82.1 ± 1.40%, the “SARS-CoV-2 virus inhibitory ability (%, average ± standard deviation)” value (SARS-CoV-2; concentration 50 uM, 50 µM) was 93.5 ± 1.80% and the IC50 (SARS-CoV-2; read-out: SARS-CoV-2 virus 50% inhibitory ability (IC50 value)) was 12.7 µM.
`CCN(CC)CCCC(C)Nc1ccnc2cc(Cl)ccc12` (stereo not shown) [Chloroquine] gave an inhibition at 0.1 µM (SARS-CoV-2; Severe acute respiratory syndrome coronavirus 2, Vero, 24 h, concentration 0.10 uM, Vero cells, 24 h, read-out: SARS-CoV-2 virus inhibitory ability (%, average ± standard deviation)) of -2.83 ± 2.09%, an inhibition at 0.2 µM (SARS-CoV-2; Severe acute respiratory syndrome coronavirus 2, Vero, 24 h, concentration 0.20 uM, Vero cells, 24 h, read-out: SARS-CoV-2 virus inhibitory ability (%, average ± standard deviation)) of -4.26 ± 0.03% and an inhibition at 0.39 µM (SARS-CoV-2; Severe acute respiratory syndrome coronavirus 2, Vero, 24 h, concentration 0.39 uM, Vero cells, 24 h, read-out: SARS-CoV-2 virus inhibitory ability (%, average ± standard deviation)) of -2.86 ± 0.21%. The inhibition at 1.56 µM (SARS-CoV-2; Severe acute respiratory syndrome coronavirus 2, Vero, 24 h, concentration 1.56 uM, Vero cells, 24 h, read-out: SARS-CoV-2 virus inhibitory ability (%, average ± standard deviation)) was 3.52 ± 6.42%, the inhibition at 3.13 µM (SARS-CoV-2; Severe acute respiratory syndrome coronavirus 2, Vero, 24 h, concentration 3.13 uM, Vero cells, 24 h, read-out: SARS-CoV-2 virus inhibitory ability (%, average ± standard deviation)) was 61.1 ± 7.72% and the inhibition at 6.25 µM (SARS-CoV-2; Severe acute respiratory syndrome coronavirus 2, Vero, 24 h, concentration 6.25 uM, Vero cells, 24 h, read-out: SARS-CoV-2 virus inhibitory ability (%, average ± standard deviation)) was 97.7 ± 0.16%. The inhibition at 12.5 µM (SARS-CoV-2; Severe acute respiratory syndrome coronavirus 2, Vero, 24 h, concentration 12.5 uM, Vero cells, 24 h, read-out: SARS-CoV-2 virus inhibitory ability (%, average ± standard deviation)) was 99.31 ± 0.39%, the inhibition at 25 µM (SARS-CoV-2; [1]) was 98.93 ± 0.07% and the inhibition at 50 µM (SARS-CoV-2; [2]) was 99.4 ± 1%. The IC50 (SARS-CoV-2; [3]) was 8.78 µM, the “Cell viability (%, average ± standard deviation)” value (Vero cell lines; concentration 0.10 uM) was 83.10 ± 6.34% and the “Cell viability (%, average ± standard deviation)” value (Vero cell lines; concentration 0.20 uM) was 87.70 ± 0.37%. For the same compound, the “Cell viability (%, average ± standard deviation)” value (Vero cell lines; concentration 0.39 uM) was 83.14 ± 3.44%, the “Cell viability (%, average ± standard deviation)” value (Vero cell lines; concentration 1.56 uM) was 89.11 ± 4.21% and the “Cell viability (%, average ± standard deviation)” value (Vero cell lines; concentration 3.13 uM) was 97.41 ± 1.82%. The “Cell viability (%, average ± standard deviation)” value (Vero cell lines; concentration 6.25 uM) was 90.84 ± 3.72%, the “Cell viability (%, average ± standard deviation)” value (Vero cell lines; concentration 12.5 uM) was 83.63 ± 0.73% and the “Cell viability (%, average ± standard deviation)” value (Vero cell lines; concentration 25 uM) was 71.29 ± 6.06%. The “Cell viability (%, average ± standard deviation)” value (Vero cell lines; concentration 50 uM) was 59.69 ± 1.38%.
`Cc1cccc(C)c1OCC(=O)N[C@@H](Cc1ccccc1)[C@@H](O)C[C@H](Cc1ccccc1)NC(=O)[C@H](C(C)C)N1CCCNC1=O` [Lopinavir] was tested, and the inhibition at 25 µM (SARS-CoV-2; [1]) was 99.01 ± 0.02%, the inhibition at 50 µM (SARS-CoV-2; [2]) was 98.2 ± 2.11% and the IC50 (SARS-CoV-2; [3]) was 12.6 µM. For the same compound, the “SARS-CoV-2 virus inhibitory ability (%, average ± standard deviation)” value (SARS-CoV-2; concentration 0.10 uM, Vero cells, 24 h, 0.1 µM) was 3.14 ± 0.24% and −0.2 ± 4.23%, the “SARS-CoV-2 virus inhibitory ability (%, average ± standard deviation)” value (SARS-CoV-2; concentration 0.20 uM, Vero cells, 24 h, 0.2 µM) was 0.2 ± 2.44% and the “SARS-CoV-2 virus inhibitory ability (%, average ± standard deviation)” value (SARS-CoV-2; concentration 0.39 uM, Vero cells, 24 h, 0.39 µM) was −0.60 ± 2.75% and 1.2 ± 5.71%. For the same compound, the “SARS-CoV-2 virus inhibitory ability (%, average ± standard deviation)” value (SARS-CoV-2; concentration 1.56 uM, Vero cells, 24 h, 1.56 µM) was 0.79 ± 3.76% and 1.7 ± 0.27%, the “SARS-CoV-2 virus inhibitory ability (%, average ± standard deviation)” value (SARS-CoV-2; concentration 3.13 uM, Vero cells, 24 h, 3.13 µM) was 3.03 ± 0.67% and 0.2 ± 6.78% and the “SARS-CoV-2 virus inhibitory ability (%, average ± standard deviation)” value (SARS-CoV-2; concentration 6.25 uM, Vero cells, 24 h, 6.25 µM) was 3.38 ± 5.94% and −0.1 ± 1.27%. The “SARS-CoV-2 virus inhibitory ability (%, average ± standard deviation)” value (SARS-CoV-2; concentration 25 uM, Vero cells, 24 h, 25 µM) was 98.6 ± 0.28%, the “SARS-CoV-2 virus inhibitory ability (%, average ± standard deviation)” value (SARS-CoV-2; concentration 50 uM, Vero cells, 24 h, 50 µM) was 99.6 ± 0.57% and the IC50 (SARS-CoV-2; read-out: SARS-CoV-2 virus 50% inhibitory ability (IC50 value), Vero cells dosed while being infected, 24 h, compounds) was 14.5 µM.
